# Test results: US20260250275A1, “HETEROARYL ENHANCERS OF THE PARTICULATE GUANYLYL CYCLASE RECEPTOR A” (University of Florida Research Foundation, Incorporated, priority 2022, published 2026)
# Like-named read-outs stand apart in the source and are kept apart here.
# Key:
# [1] = cited from earlier work
# human GC-A = molecular target: T1, human GC-A (Homo sapiens, UniProt P16066); experiment: cGMP potentiation (HTRF) in human GC-A overexpressing HEK293 cells with EC20 ANP; assay type: cell-based; settings: for LLE (lipophilic ligand efficiency = EC50−cLogP): calculated from EC50 and cLogP; for Emax: HEK293, 100% = saturating ANP (10 nM), 0% = EC20 ANP
# T1 construct: host or cells: HEK293
# T1 sequence (P16066 33-1061): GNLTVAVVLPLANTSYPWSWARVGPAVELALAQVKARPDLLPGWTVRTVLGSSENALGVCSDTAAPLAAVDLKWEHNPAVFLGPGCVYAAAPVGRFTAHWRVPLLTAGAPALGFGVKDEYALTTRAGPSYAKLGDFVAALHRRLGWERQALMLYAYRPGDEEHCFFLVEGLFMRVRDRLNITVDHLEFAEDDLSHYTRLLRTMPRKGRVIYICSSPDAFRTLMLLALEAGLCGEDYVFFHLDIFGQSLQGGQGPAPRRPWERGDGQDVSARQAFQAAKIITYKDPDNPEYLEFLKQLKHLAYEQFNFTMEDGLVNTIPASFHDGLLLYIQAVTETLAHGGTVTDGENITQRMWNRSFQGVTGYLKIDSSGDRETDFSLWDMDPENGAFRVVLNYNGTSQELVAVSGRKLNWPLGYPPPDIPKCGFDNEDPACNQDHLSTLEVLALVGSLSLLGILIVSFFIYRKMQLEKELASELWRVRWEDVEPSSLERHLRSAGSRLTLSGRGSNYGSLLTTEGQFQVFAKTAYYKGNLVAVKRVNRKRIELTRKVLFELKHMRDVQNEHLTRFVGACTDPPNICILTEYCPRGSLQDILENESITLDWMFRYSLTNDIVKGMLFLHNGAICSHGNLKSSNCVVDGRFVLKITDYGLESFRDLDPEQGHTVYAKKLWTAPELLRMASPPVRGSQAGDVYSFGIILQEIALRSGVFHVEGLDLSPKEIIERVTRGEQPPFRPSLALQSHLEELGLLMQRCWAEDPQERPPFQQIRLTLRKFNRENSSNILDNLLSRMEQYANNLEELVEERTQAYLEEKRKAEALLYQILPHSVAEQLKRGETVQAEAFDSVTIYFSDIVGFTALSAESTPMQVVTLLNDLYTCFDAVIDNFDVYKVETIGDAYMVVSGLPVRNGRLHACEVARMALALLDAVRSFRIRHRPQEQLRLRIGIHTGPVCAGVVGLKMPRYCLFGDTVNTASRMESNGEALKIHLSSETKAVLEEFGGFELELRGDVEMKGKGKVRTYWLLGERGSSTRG
# T1 sequence (P01160 124-151 partner limits assumed): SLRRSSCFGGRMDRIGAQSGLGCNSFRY
# [2] = potentiation of cGMP in presence of EC20 ANP (20 pM), Tables 1-7, read-out: EC50
smiles,measurement,setting,value
CN(C)CCN1CCCC(C(=O)Nc2nc3c(F)cc(F)cc3s2)C1 (centres unmarked) [MCUF-651],Activity in vivo,[1],active in vivo
same,Oral bioavailability,"[1]; in vivo, po",orally bioavailable
N[C@@H]1CCC[C@H](C(=O)Nc2nc3c(F)cc(F)cc3s2)C1 [JUF-S12-001A],EC50,human GC-A; [2],700 to 3100 nM
CN(C)CCN[C@@H]1CCC[C@@H](C(=O)Nc2nc3c(F)cc(F)cc3s2)C1 [JUF-S12-002],EC50,human GC-A; [2],> 5000 nM
COc1ccc(-c2csc(NC(=O)C3CCCN(CCN(C)C)C3)n2)cc1 (centres unmarked) [JUF-S7-013],LLE (lipophilic ligand efficiency = EC50−cLogP),human GC-A,2.69
"CN(C)CCN1CCCC(C(=O)Nc2nc3c(F)cc(F)cc3s2)C1 (centres unmarked) [MCUF 651, reference compound]",Emax values of internal control (FIG. 2),human GC-A; titrated on each 384-test plate,80-100 % response
same,EC50,"human GC-A; titrated on each 384-test plate, read-out: Acceptable EC50 values of internal control (FIG. 2)",200 to 600 nM
CN(C)CCN1CCCCC1C(=O)Nc1nc2c(F)cc(F)cc2s1 (centres unmarked) [JUF-S2-003],LLE (lipophilic ligand efficiency = EC50−cLogP),human GC-A,2.51
N[C@@H]1CCCC(C(=O)Nc2nc3c(F)cc(F)cc3s2)C1 (some centres unmarked) [JUF-S12-001A],Emax,human GC-A,87 to 97%
CN(C)C1CCN(CC(=O)Nc2nc3c(F)cc(F)cc3s2)CC1 [JUF-S10-004],Emax,human GC-A,91 to 96%
same,EC50,human GC-A; [2],1500 to 2600 nM
